Data: patent publication US11925622B2, “Role of novel carbazole linked 1, 2, 3- triazole analogs in alleviating methylglyoxal-mediated late diabetic vascular complications” (priority 2021, dated 2024)
Structures can show the parent of a compound that is named as a salt. Values belong to the compound of their own block, whether it stands above or below them.

What was measured:
[1] = tested on: MGO-mediated BSA glycation; test: In vitro antiglycation activity, MGO-BSA glycation assay (fluorescence); format: biochemical, bovine; conditions: for IC50 / % inhibition of MGO-BSA glycation: BSA 10 mg/mL, MGO 0.1 M, 24 h, 37° C.; for IC50: read-out: IC50 antiglycation, MGO-BSA model; for % inhibition of MGO-BSA glycation: compounds at 1 mM
Description: In vitro antiglycation activity: The MGO-BSA assay was performed as per optimized protocol of Jahan, H. et al with slight modifications. Initially, the antiglycation activity of parent compound carbazole (1), and carbazole-linked 1,2,3 triazoles 2-16 were identified at 1 mM using MGO-BSA model. […] BSA (10 mg/mL) incubated with MGO (0.1 M) for 24 h at 37° C. using phosphate-azide buffer (0.1 mM), served as a positive control. The wells with BSA only were taken as negative control. Whereas, rutin and quercetin were used as standard antiglycation agents. After 24 h of incubation, the fluorescence of each well was measured by using microplate reader (Varioskan lux, Thermo Fisher Scientific, 319 Scientific, USA) at 355 nm excitation, and 460 nm emission.
The % inhibition of MGO-BSA-mediated by carbazole-triazole derivatives was quantified by using the following formula: […]
The IC50 of active antiglycation compounds were identified by using EZ-FIT Enzyme Kinetics Program (Perrella Scientific Inc., Amherst, USA).

[2] = tested on: MGO-AGEs-induced ROS in THP-1 monocytes; test: Anti-oxidation activity, DCFH-DA assay of MGO-AGEs-mediated ROS in monocytes; format: cell-based, human; conditions: for ROS (DCF fluorescence) in MGO-AGEs-treated monocytes: 100 μM (maximum inhibition), MGO-AGEs 50 μg/mL, 24 h
Description: Anti-oxidation activity: The measurement of effect of derivatives on AGEs-mediated ROS was based on the previously reported protocol of Soumyarani and colleagues with slight amendments. Initially, 1×10^6 monocytes/mL were loaded in sterile 96-well flat bottom black fluorescent plate, and pre-incubated with DCFH-DA (10 μM; Sigma-Aldrich Chemical Corporation, St. Louis, Missouri, USA) for 45 min at 37° C. Followed by the incubation, antiglycating, non-toxic carbazole-linked triazole derivatives (10, 30, 50, and 100 μM) were added to the wells for 1 h before co-treatment of cells with MGO-AGEs (50 μg/mL) for next 24 h. Next, the fluorometric measurement of converted DCFH into oxidized DCF product was carried out via spectrofluorimeter (Varioskanmicroplate reader, Thermo Fisher Scientific, USA) using 485 nm excitation and 520 nm emission wavelengths. Various controls were plated in each experiment. Wells containing culture RPMI with MGO-AGEs (50 μg/mL) and H2O2 ([…]) served as positive controls, while cells containing BSA were taken as negative control.

THP-1 cell line = test: Cytotoxicity, WST-1 assay in human monocytes; format: cell-based; conditions: 24 h
Description: (§1) Cytotoxicity analysis: The cytotoxic profile of the compounds was determined by using the MTT assay in hepatocytes (HepG2 cell line), and WST-1 assay in human monocytes (THP-1 cell line) as per the manufacturer's protocols. […] Doxorubicin treated cells were used as a positive control, while cells with culture medium served as negative control. Wells with culture medium served as a blank. Followed by the incubation, 20 μL of MTT were added in each well. […] The absorbance was measured by using 540, and 450 nm, respectively ([…] reader, Thermo Fisher, 319 Scientific, USA).

HepG2 cell line = test: Cytotoxicity, MTT assay in hepatocytes; format: cell-based, human; conditions: 24 h
Description: as §1

COX-2 = COX-2 protein levels analysis by immunoblotting; format: cell-based; conditions: human monocytes co-treated with MGO-AGEs 50 μg/mL; immunoblot densitometry
Description: COX-2 protein levels analysis: The 50 μg/mL of protein was loaded onto 10% sodium dodecyl sulfate-polymerized acrylamide gel electrophoresis (SDS-PAGE), and transferred to nitrocellulose membranes using power blotter XL System (Invitrogen; Thermo Fisher Scientific). Subsequently, the membrane was incubated for 1 h in 1% bovine serum albumin in PBS with 0.1% Tween-20 to block unspecified binding. The protein bands of the membrane were probed with primary monoclonal antibody COX-2 (Thermo Fisher Scientific, Waltham, MA, USA), and B-actin (Cloud-Clone Corp., Wuhan, China) for overnight at 4° C. Following incubation, the membrane was rinsed with tris buffer saline tween (TBST) three times, and then exposed to secondary antibody (HRP mouse mono anti-rabbit IgG; Abeam, Cambridge, UK) at room temperature for an hour. The washing was again carried three times with TBST, and then the membrane was exposed to ECL (Sangon biotech, Shanghai, China) to visualize the bands in Western Blot Detection System (Thermo Fisher Scientific, Waltham, MA, USA). The densitometry of immuno-positive COX-2, and β-actin bands was used by Image J.

[3] = tested on: NF-κB (p65) translocation in monocytes; test: NF-κB (p65) translocation analysis by immunocytochemistry; format: cell-based, human; conditions: compounds 100 μM, 1 h pre-incubation; AGEs 50 μg/mL 1 h; MGO-AGEs control 75 RFU, BSA 11 RFU
Description: NF-κB (p^65) translocation analysis: The monocytes at the density of 1×10^6 cells/mL were pre-incubated with compounds (100 μM) for an h, and then co-incubated with AGEs (50 μg/mL) for another 1 h in a 24-well plate at 37° C. Following treatment, cells were fixed with paraformaldehyde (4% PFA; 10 min), and permeabilized with Triton X-100 (0.2%; 10 min). Next, the cells were rinsed with chilled PBS three times, and incubated with bovine serum albumin (1% BSA; 1 h) to block the non-specific binding sites. Cells were exposed to primary antibody against NF-κB (p 65) (1:300 dilution, Thermo Fisher Scientific, Waltham, MA, USA) for overnight at 4° C. Subsequently followed by washing the cells with chilled PBS three times, secondary antibody (polyclonal fluorescein isothiocyanate (FITC)-conjugated antibody) to rabbit IgG (1:1000 dilution, Abeam, Cambridge, UK) was used.
Nuclei were counterstained by using DAPI (Thermo Fisher Scientific, Waltham, MA, USA). The BSA-treated monocytes (50 μg/mL) had served as a negative control, while AGEs-treated monocytes (50 μg/mL) as positive control. All the images were taken by using Nikon microscope (Nikon, Tokyo, Japan). The quantification of images was carried out via ImageJ (Image processing and analysis in Java-NIH).

SMILES: O=C(Cn1cc(Cn2c3ccccc3c3ccccc32)nn1)c1ccccc1 [Compound 2, 2-(4-((9H-Carbazole-9-yl)methyl)-1H-1,2,3-triazole-1-y1)-1-phenylethan-1-one]
antiglycation activity in MGO-BSA model (in words) [1]: weak potential | IC50 [1]: 797 ± 7 µM | % inhibition of MGO-BSA glycation [1]: 58% | antioxidant activity / ROS production inhibition (in words) ([2]; MGO-AGEs 50 μg/mL-treated THP-1 monocytes): inactive

SMILES: Cc1ccccc1C(=O)Cn1cc(Cn2c3ccccc3c3ccccc32)nn1 [Compound 7, 2-(4-((9H-Carbazole-9-yl)methyl)-1H-1,2,3-triazole-1-y1)-1-(o-tolyl)ethan-1-one]
% Inhibition ± SD THP-1 (THP-1 cell line; 1 μM): 21 ± 8.8% | % Inhibition ± SD THP-1 (THP-1 cell line; 10 μM): 27 ± 4.2% | % Inhibition ± SD THP-1 (THP-1 cell line; 30 μM): 34.6 ± 6.5% | % Inhibition ± SD THP-1 (THP-1 cell line; 50 μM): 32.1 ± 0.4% | % Inhibition ± SD THP-1 (THP-1 cell line; 100 μM): 50.7 ± 5.3% | % Inhibition ± SD THP-1 (THP-1 cell line; 250 μM): 80.8 ± 5.1% | % Inhibition ± SD THP-1 (THP-1 cell line; 500 μM): 79.5 ± 5.8% | antiglycation activity in MGO-BSA model (in words) [1]: good activity | IC50 [1]: 275 ± 5 µM | % inhibition of MGO-BSA glycation [1]: 72% | % Inhibition ± SD Hep-G2 (HepG2 cell line; 1 μM): 12.3 ± 3.7% | % Inhibition ± SD Hep-G2 (HepG2 cell line; 10 μM): 21.8 ± 4.7% | % Inhibition ± SD Hep-G2 (HepG2 cell line; 30 μM): 21.8 ± 1.5% | % Inhibition ± SD Hep-G2 (HepG2 cell line; 50 μM): 41.1 ± 3.5% | % Inhibition ± SD Hep-G2 (HepG2 cell line; 100 μM): 50.3 ± 3.9% | % Inhibition ± SD Hep-G2 (HepG2 cell line; 250 μM): 59.8 ± 15.5% | % Inhibition ± SD Hep-G2 (HepG2 cell line; 500 μM): 78.4 ± 2.2%

SMILES: Cc1cccc(C(=O)Cn2cc(Cn3c4ccccc4c4ccccc43)nn2)c1 [Compound 8, 2-(4-((9H-Carbazole-9-yl)methyl)-1H-1,2,3-triazole-1-y1)-1-(m-tolyl)ethan-1-one]
% Inhibition ± SD THP-1 (THP-1 cell line; 1 μM): 35.5 ± 1.1% | % Inhibition ± SD THP-1 (THP-1 cell line; 10 μM): 42.1 ± 0.4% | % Inhibition ± SD THP-1 (THP-1 cell line; 30 μM): 43 ± 4.3% | % Inhibition ± SD THP-1 (THP-1 cell line; 50 μM): 43.9 ± 0.7% | % Inhibition ± SD THP-1 (THP-1 cell line; 100 μM): 46.7 ± 2.0% | % Inhibition ± SD THP-1 (THP-1 cell line; 250 μM): 73.6 ± 1.9% | % Inhibition ± SD THP-1 (THP-1 cell line; 500 μM): 99.5 ± 0.3% | antiglycation activity in MGO-BSA model (in words) [1]: good activity | IC50 [1]: 130 ± 10 µM | % inhibition of MGO-BSA glycation [1]: 79% | % Inhibition ± SD Hep-G2 (HepG2 cell line; 1 μM): 6.4 ± 2.2% | % Inhibition ± SD Hep-G2 (HepG2 cell line; 10 μM): 8.7 ± 4.8% | % Inhibition ± SD Hep-G2 (HepG2 cell line; 30 μM): 47.3 ± 2.2% | % Inhibition ± SD Hep-G2 (HepG2 cell line; 50 μM): 54.5 ± 0.7% | % Inhibition ± SD Hep-G2 (HepG2 cell line; 100 μM): 66.9 ± 1.9% | % Inhibition ± SD Hep-G2 (HepG2 cell line; 250 μM): 74.1 ± 1.9% | % Inhibition ± SD Hep-G2 (HepG2 cell line; 500 μM): 86.7 ± 5.8%

SMILES: O=C(Cn1cc(Cn2c3ccccc3c3ccccc32)nn1)c1cccc([N+](=O)[O-])c1 [Compound 11, 2-(4-((9H-Carbazole-9-yl)methyl)-1H-1,2,3-triazole-1-y1)-1-(3-nitrophenyl)ethan-1-one]
antiglycation activity in MGO-BSA model (in words) [1]: good activity | IC50 [1]: 147 ± 10 µM | % inhibition of MGO-BSA glycation [1]: 75.7% | ROS (DCF fluorescence) in MGO-AGEs-treated monocytes [2]: 9.06 RFU

IC50 [1]: 333 ± 10 µM
SMILES: c1ccc2c(c1)c1ccccc1n2Cc1cn(Cc2ccc(Cn3cc(Cn4c5ccccc5c5ccccc54)nn3)cc2)nn1 [Compound 15, 1,4-Bis ((4-((9H-carbazol-9-yl)methyl)-1H-1,2,3-triazol-1yl)methyl) benzene]
antiglycation activity in MGO-BSA model (in words) [1]: good activity | % inhibition of MGO-BSA glycation [1]: 71% | ROS (DCF fluorescence) in MGO-AGEs-treated monocytes [2]: 10.6 RFU

SMILES: COc1cccc2c1C(=O)c1c(O)c3c(c(O)c1C2=O)C[C@@](O)(C(=O)CO)C[C@@H]3OC1C[C@H](N)[C@H](O)[C@H](C)O1 (stereo partly drawn) [Doxorubicin, (7S,9S)-7-[(4S,5S,6S)-4-amino-5-hydroxy-6-methyloxan-2-yl]oxy-6,9,11-trihydroxy-9-(2-hydroxyacetyl)-4-methoxy-8,10-dihydro-7H-tetracene-5,12-dione; hydrochlorid, reference compound]
inhibition at 1 µM (THP-1 cell line; Homo sapiens, THP-1, 1 μM, read-out: % Inhibition ± SD THP-1): 34.2% | inhibition at 10 µM (THP-1 cell line; Homo sapiens, THP-1, 10 μM, read-out: % Inhibition ± SD THP-1): 60.2 ± 0.6% | inhibition at 30 µM (THP-1 cell line; Homo sapiens, THP-1, 30 μM, read-out: % Inhibition ± SD THP-1): 63.2 ± 0.4% | inhibition at 50 µM (THP-1 cell line; Homo sapiens, THP-1, 50 μM, read-out: % Inhibition ± SD THP-1): 64.5 ± 2.4% | inhibition at 100 µM (THP-1 cell line; Homo sapiens, THP-1, 100 μM, read-out: % Inhibition ± SD THP-1): 67.3 ± 0.2% | inhibition at 250 µM (THP-1 cell line; Homo sapiens, THP-1, 250 μM, read-out: % Inhibition ± SD THP-1): 76.4 ± 10% | inhibition at 500 µM (THP-1 cell line; Homo sapiens, THP-1, 500 μM, read-out: % Inhibition ± SD THP-1): 94.3 ± 2.3% | inhibition at 1 µM (HepG2 cell line; Homo sapiens, HepG2, 1 μM, read-out: % Inhibition ± SD Hep-G2): 30.4 ± 5.3% | inhibition at 10 µM (HepG2 cell line; Homo sapiens, HepG2, 10 μM, read-out: % Inhibition ± SD Hep-G2): 28.3 ± 4.8% | inhibition at 30 µM (HepG2 cell line; Homo sapiens, HepG2, 30 μM, read-out: % Inhibition ± SD Hep-G2): 64 ± 0.4% | inhibition at 50 µM (HepG2 cell line; Homo sapiens, HepG2, 50 μM, read-out: % Inhibition ± SD Hep-G2): 58 ± 2.4% | inhibition at 100 µM (HepG2 cell line; Homo sapiens, HepG2, 100 μM, read-out: % Inhibition ± SD Hep-G2): 62.6 ± 0.2% | inhibition at 250 µM (HepG2 cell line; Homo sapiens, HepG2, 250 μM, read-out: % Inhibition ± SD Hep-G2): 69.8 ± 10% | inhibition at 500 µM (HepG2 cell line; Homo sapiens, HepG2, 500 μM, read-out: % Inhibition ± SD Hep-G2): 87.1 ± 2.2%

IC50 [1]: 138 ± 4 µM
SMILES: O=c1c(O)c(-c2ccc(O)c(O)c2)oc2cc(O)cc(O)c12 [Quercetin, 2-(3,4-dihydroxyphenyl)-3,5,7-trihydroxy-4H-chromen-4-one, reference compound]
reduction in COX-2 levels compared to MGO-BSA-treated cells (COX-2): 1.31 fold | NF-κB translocation in MGO-AGEs-treated monocytes [3]: 55 RFU | % inhibition of MGO-BSA glycation [1]: 58% | ROS (DCF fluorescence) in MGO-AGEs-treated monocytes [2]: 8.39 RFU

SMILES: c1ccc2c(c1)[nH]c1ccccc12 [carbazole]
% inhibition of MGO-BSA glycation [1]: 36.7%
